# PubChem BioAssay AID1205 (EPA DSSTox, 2008)
# Activity calls are given as the source filed them.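 How the source made its calls: active means tumour findings in long-term animal cancer tests in more than one sex, species or organ; inactive means no tumour finding and more than one negative test.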
# Assay: DSSTox (CPDBAS) Carcinogenic Potency Database Summary MultiCellCall Results
# Conditions: animal carcinogenicity bioassays, multi-cell call summary
# Method in brief: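 ActivityScore sums 50 for multispecies, 30 for multisex and 20 for multisite positivity. Based on the most positive experiment per sex-species across standardised chronic rodent and other animal cancer tests.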
row,SMILES,outcome
1,C=C1C/C(=C/C)C(=O)O[C@@H]2CCN3CC=C(COC(=O)[C@@]1(O)CO)[C@H]23,active; multisite active; multisex active; multispecies active
2,Cc1cc(N=Nc2ccccc2C)ccc1N,active; multisex active
3,CC1=C(C)C(=O)C(C(CCCCCC(=O)O)c2ccccc2)=C(C)C1=O (configuration not stated),inactive; multisex inactive
4,CCCN(N=O)C(N)=O,active; multisex active
5,ClC1=C(Cl)[C@]2(Cl)[C@@H]3[C@@H]4C[C@@H]([C@H]5O[C@@H]45)[C@@H]3[C@@]1(Cl)C2(Cl)Cl,active; multisex active
6,CCC(=O)C(CC(C)N(C)C)(c1ccccc1)c1ccccc1 (configuration not stated),inactive; multisex inactive; multispecies inactive
7,O=NN1CCCCCC1,active; multisite active; multisex active
8,O=Nc1ccc(Nc2ccccc2)cc1,active; multispecies active
9,FC(F)(F)CCl,active; multisite active; multisex active
10,CCCCCCCCCCCN(C)N=O,active; multisite active
11,CNC(=O)O/N=C/C(C)(C)SC,inactive; multisex inactive; multispecies inactive
12,NNc1nc(-c2ccc([N+](=O)[O-])cc2)cs1,active; multisite active; multispecies active
13,CC(=O)Nc1ccc(O)cc1,active; multisite active; multisex active; multispecies active
14,C/C(=C(\CCOC(=O)c1ccccc1)SC(=O)c1ccccc1)N(C=O)Cc1cnc(C)nc1N,inactive; multisex inactive
15,O=Cc1ccccc1,active; multisex active
16,CC(=O)Nc1ccc2c(c1)Cc1ccccc1-2,active; multisite active; multisex active; multispecies active
17,CCCCCCCCCCCCCCN(C)N=O,active; multisite active
18,CN1C(=O)C(O)N=C(c2ccccc2)c2cc(Cl)ccc21 (configuration not stated),inactive; multisex inactive
19,O=C/C=C/c1ccccc1,inactive; multisex inactive; multispecies inactive
20,O=C(O)CCl,inactive; multisex inactive; multispecies inactive
21,CCn1c2ccccc2c2cc(N)ccc21,active; multisite active; multisex active; multispecies active
22,Cc1cc(N)ccc1N,inactive; multisex inactive; multispecies inactive
23,OC[C@H]1O[C@H](O[C@]2(CCl)O[C@H](CCl)[C@@H](O)[C@@H]2O)[C@H](O)[C@@H](O)[C@H]1Cl,inactive; multisex inactive

row,SMILES,outcome
1,S=C([S-])NCCNC(=S)[S-].[Zn+2],inactive; multisex inactive; multispecies inactive
2,Cc1cn([C@H]2C[C@H](N=[N+]=[N-])[C@@H](CO)O2)c(=O)[nH]c1=O,active; multispecies active
3,Nc1ccccc1N,active; multisex active; multispecies active
4,O=C1O[C@H]([C@H](O)CO)C(O)=C1O,inactive; multisex inactive; multispecies inactive
5,O=[N+]([O-])c1ccc2ncccc2c1,inactive; multisex inactive
6,CN(CC(O)CO)N=O (configuration not stated),active; multisite active; multispecies active
7,CCCCNNCCCC,active; multisite active; multisex active
8,CC(C)OC(=O)COc1ccc(Cl)cc1Cl,inactive; multisex inactive
9,O=C(O)c1nn(Cc2ccc(Cl)cc2Cl)c2ccccc12,inactive; multisex inactive
10,C=CF,active; multisite active; multisex active; multispecies active
11,COC(=O)C1=C(C)NC(C)=C(C(=O)OCCN2CCN(C(c3ccccc3)c3ccccc3)CC2)C1c1cccc([N+](=O)[O-])c1 (configuration not stated),inactive; multisex inactive; multispecies inactive
12,CNNCc1ccc(C(=O)NC(C)C)cc1,active; multisite active; multisex active; multispecies active
13,CCNC(=O)N(CCN(C)C)N=O,active; multisite active
14,O=[N+]([O-])/C=C/c1ccccc1,inactive; multisex inactive; multispecies inactive
15,N#CS,inactive; multisex inactive
16,CCc1ccccc1,active; multisite active; multisex active; multispecies active
17,Cc1c(N)nc(C)c2c1[nH]c1ccccc12,active; multisex active; multispecies active
18,O=C(O)/C=C/c1ccc(O)c(O)c1,active; multisite active; multisex active; multispecies active
19,O=C1c2ccccc2C(=O)c2ccccc21,inactive; multisex inactive
20,C[C@]12C=CC(=O)C=C1CC[C@@H]1[C@@H]2C(=O)C[C@@]2(C)[C@H]1CC[C@]2(O)C(=O)CO,inactive; multisex inactive
21,CNCCC(Oc1ccc(C(F)(F)F)cc1)c1ccccc1 (configuration not stated),inactive; multisex inactive; multispecies inactive
22,Cn1c(N)nc2ncc(-c3ccccc3)cc21,active; multisite active; multisex active; multispecies active
23,O=C(Oc1ccccc1)Oc1ccccc1,inactive; multisex inactive

row,SMILES,outcome
1,CCCCCNN,active; multisite active
2,O=P(OCCCl)(OCCCl)OCCCl,active; multisite active; multisex active; multispecies active
3,c1ccc2c(c1)[nH]c1ccccc12,active; multisite active; multisex active
4,F,inactive; multisex inactive; multispecies inactive
5,CC1CO1 (configuration not stated),active; multisite active; multisex active; multispecies active
6,BrC(Br)Br,active; multisex active
7,[O-]/[N+](=N\O)c1ccccc1,active; multisite active; multisex active; multispecies active
8,O=S(=O)(c1ccc(Cl)cc1)c1ccc(Cl)cc1,inactive; multisex inactive; multispecies inactive
9,O=[N+]([O-])c1ccc2c(c1)Cc1ccccc1-2,active; multisite active
10,CCN(Cc1cccc(S(=O)(=O)O)c1)c1ccc(C(=C2C=CC(=[N+](CC)Cc3cccc(S(=O)(=O)[O-])c3)C=C2)c2ccccc2)cc1,active; multisite active; multisex active
11,COC(=O)c1ccc(C(=O)OC)cc1,inactive; multisex inactive; multispecies inactive
12,OC[C@H]1O[C@@H]2O[C@H]3[C@H](O)[C@@H](O)[C@@H](O[C@H]4[C@H](O)[C@@H](O)[C@@H](O[C@H]5[C@H](O)[C@@H](O)[C@@H](O[C@H]6[C@H](O)[C@@H](O)[C@@H](O[C@H]7[C@H](O)[C@@H](O)[C@@H](O[C@H]8[C@H](O)[C@@H](O)[C@@H](O[C@H]1[C@H](O)[C@H]2O)O[C@@H]8CO)O[C@@H]7CO)O[C@@H]6CO)O[C@@H]5CO)O[C@@H]4CO)O[C@@H]3CO,inactive; multisex inactive; multispecies inactive
13,COc1ccccc1N,active; multisite active; multisex active; multispecies active
14,CS(=O)(=O)c1ccc([C@@H](O)[C@@H](CO)NC(=O)C(Cl)Cl)cc1,inactive; multisex inactive
15,CC(=O)OC[C@H]1O[C@H](O[C@]2(COC(C)=O)O[C@H](COC(=O)C(C)C)[C@@H](OC(=O)C(C)C)[C@@H]2OC(=O)C(C)C)[C@H](OC(=O)C(C)C)[C@@H](OC(=O)C(C)C)[C@@H]1OC(=O)C(C)C,inactive; multisex inactive; multispecies inactive
16,FCCl,active; multisex active
17,C=C(F)F,inactive; multisex inactive
18,CN(C)/N=N/c1nc[nH]c1C(N)=O,active; multisite active; multisex active; multispecies active
19,CCC[CH2][Sn]([CH2]CCC)([CH2]CCC)[O][Sn]([CH2]CCC)([CH2]CCC)[CH2]CCC,inactive; multisex inactive
20,CNC(=O)Oc1cccc2c1OC(C)(C)C2,inactive; multisex inactive
21,CCO,active; multisite active
22,COc1ccc(N)cc1,inactive; multisex inactive; multispecies inactive
23,CC(Oc1ccc(Cl)cc1Cl)C(=O)O (configuration not stated),inactive; multisex inactive

row,SMILES,outcome
1,CC(=O)CN(CCO)N=O,active; multisite active; multispecies active
2,COC(=O)C1=C(C)NC(C)=C(C(=O)OCCc2ccc(N3CCN(C(c4ccccc4)c4ccccc4)CC3)cc2)C1c1cccc([N+](=O)[O-])c1 (configuration not stated),inactive; multisex inactive; multispecies inactive
3,BrCCBr,active; multisite active; multisex active; multispecies active
4,O=NN1CCC(=O)NC1=O,active; multisex active
5,CCOC(N)=O,active; multisite active; multisex active; multispecies active
6,C=CC(=C)C,active; multisite active; multisex active; multispecies active
7,O=C1C(Cl)=C(Cl)C(=O)C(Cl)=C1Cl,inactive; multisex inactive
8,CBr,inactive; multisex inactive; multispecies inactive
9,O.O.O.O.O.O.O.O.O=S(=O)([O-])[O-].O=S(=O)([O-])[O-].O=S(=O)([O-])[O-].[Cd+2].[Cd+2].[Cd+2],inactive; multispecies inactive
10,CN(N=O)c1ccc(/C=C/c2ccnc3ccccc23)cc1,active; multisex active
11,CC(=O)[O][Sn]([c]1ccccc1)([c]1ccccc1)[c]1ccccc1,inactive; multisex inactive
12,CCN(CC)C(=O)c1cccc(C)c1,inactive; multisex inactive; multispecies inactive
13,O=[N+]([O-])OCC(CO[N+](=O)[O-])O[N+](=O)[O-],active; multisite active; multisex active
14,CCCN=[N+]([O-])CCC,active; multisite active
15,O=P(=O)O,inactive; multisex inactive
16,CC/C=C(/CC)[N+](=O)[O-],active; multispecies active
17,Cc1c(N)cccc1N,inactive; multisex inactive; multispecies inactive
18,Nc1nnc(-c2ccc([N+](=O)[O-])o2)s1,active; multisite active
19,O=S(=O)(O)c1ccc(N=Nc2cc(S(=O)(=O)O)c3ccccc3c2O)c2ccccc12,inactive; multisex inactive; multispecies inactive
20,COC1[C@@H](O[C@@H]2O[C@H](C)[C@@H](O[C@H]3C[C@@](C)(O)[C@H](OC(=O)CC(C)C)[C@H](C)O3)[C@H](N(C)C)[C@H]2O)[C@@H](CC=O)C[C@@H](C)[C@@H](O)/C=C/C=C/C[C@@H](C)OC(=O)C[C@H]1OC(C)=O (some centres not stated),inactive; multisex inactive
21,S=c1nc[nH]c2nc[nH]c12,inactive; multisex inactive
22,Cc1cc(-c2ccc(N)c(C)c2)ccc1N,active; multisite active; multisex active; multispecies active
23,C=C(C)C(=O)OC,inactive; multisex inactive; multispecies inactive
